Laboratory results as given in US4639468A, “Derivatives of glycinamide, their preparation and their use” (priority 1979, dated 1987).
Where two headings read alike, the source gives them in different places.

Legend:
[1] = test system: convulsions induced by bicuculline; experiment: in vivo; settings: for bicuculline (score: sum of animals protected by dosages of 10 and 100 mgr/kg): oral, 5 mice each, 3 hours before bicuculline 0.6 mgr/kg i.v., tonic convulsions; for ED50: Mus musculus; for DL50/DE50 (therapeutical index): Table III
Protocol: (§1) The anticonvulsive effect was examined for tonic convulsions induced by bicuculline. The compounds of the invention were administrated orally at dosages of 10 and 100 mgr/kg, each to 5 mice, 3 hours before intravenous injection of bicuculline at the dosage of 0.6 mgr/kg. The number of mice protected against tonic convulsions and the number of dead mice were noted.
(§2) Amongst the substances according to the invention, 2-n-pentylaminoacetamideand its hydrochloride were more particularly studied. […] The hydrochloride was also administered intravenously. […] Table III also gives the therapeutical index (LD50/ED50).

in vivo [2] = experiment: in vivo
mouse = experiment: passive prevention (memory) in mouse; type: in vivo; settings: 50 mgr/kg intraperitoneally
Excerpt: This product and very likely other compounds of the invention thus improve mnesic retention.

platelet agglutination = experiment: inhibition of platelet agglutination in human plasma (turbidimetric method of Born and Cross, Trombofax); type: cell-based; settings: human plasma rich in platelets, preincubated 3 minutes before Trombofax
Protocol: The measure of the inhibition of platelet agglutination is made according to the turbidimetric method of G. V. R. Born and M. J. Cross (J. Physiol. 168, 178, […]). The plasma rich in platelets is preincubated for 3 minutes before introduction of the inductor agent, Trombofax. The inhibion of the maximum amplitude of agglutination is measured by means of Upchurch agglutometer. In this test, compounds 1, 11, 14 and 18 have shown as being active.

mice = experiment: in vivo; settings: oral, mice; Table II
[3] = test system: decarboxylase glutamate (GAD); experiment: activity of decarboxylase glutamate (GAD) in homogenizates of rat brain; type: biochemical; settings: 10^-4 M
Protocol: The substances of the invention have the property of inhibiting convulsions induced by bicculline in mouse. […] As a matter of fact, bucuculline is a specific antoganist of GABA. Besides, the effect of the products on the activity of the GABA synthesis enzyme, decarboxylase glutamate (GAD), was studied. The activity of the GAD was determined in homogenizates of rat brain according to the method described by L. Parker (Methods in Enzymology, Ed. S. Fleischer, 1974, Vol. XXXII, part V., p. 779). […] In general, the products of the invention […] the activity of the […] (GABA-T), enzyme of GABA catabolism, which results in an increase of the GABA levels at the level of GABA-ergic neurons.

[4] = test system: convulsions induced by strychnine; experiment: convulsions induced by strychnine; settings: in vivo
[5] = test system: convulsions due to leptazol; experiment: convulsions due to leptazol in mouse; type: in vivo
[6] = test system: central serotoninergic system; experiment: potentiation of the effects of 1-trypthophan in mouse; type: in vivo
mortality caused by KCN = experiment: protection of mice against mortality caused by KCN; type: in vivo, mouse
[7] = test system: convulsions due to picrotoxine; experiment: convulsions due to picrotoxine; settings: in vivo
Excerpt: (3) 2-n-pentylaminoacetamide hydrochloride has no effect on the convulsions due to picrotoxine.

GAD = GAD activity after oral administration in rat; type: in vivo; settings: 200 mgr/kg per os
GABA-T = GABA-T activity after oral administration in rat; type: in vivo; settings: 200 mgr/kg per os
[8] = test system: GABA rate of the black substance; experiment: GABA rate of the black substance after oral administration in rat; type: in vivo; settings: 200 mgr/kg per os, 4 hours after treatment
[9] = test system: accumulation of lactate in the brain; experiment: cerebral anoxia caused by decapitation of rat: lactate in the brain; type: in vivo; settings: first seconds of anoxia caused by decapitation
Excerpt: This activity very likely explains itself by an effect on the cerebral energetic metabolism during anoxia. This effect on the cerebral energetic metabolism has been confirmed for 2-n-pentylaminoacetamide hydrochloride in a series of experiments on cerebral anoxia caused by decapitation of rat.

in vivo [10] = settings: mouse, in vivo, po
Protocol: as §1, §2

[11] = mouse, in vivo, po, mice; Table II; read-out: DL50 (the source's name)
[12] = in vivo, po; mouse; Table III; read-out: DL50 (the source's name)

CCCCCCCCNCC(N)=O [Compound 1, 2-n-octylaminoacetamide]
bicuculline (score: sum of animals protected by dosages of 10 and 100 mgr/kg) [1]: 4
LD50 (in vivo [2]; [11]): 2220 mg/kg
behaviour extinction in passive prevention (mouse): delayed the behaviour extinction
inhibition of platelet agglutination (platelet agglutination): active

CCCCCCNCC(N)=O [Compound 2, 2-n-hexylaminoacetamide]
bicuculline (score: sum of animals protected by dosages of 10 and 100 mgr/kg) [1]: 4
DL50 (mice): 780 mg/kg

CCCCCNCC(N)=O [Compound 3, 2-n-pentylaminoacetamide]
ED50 ([1]; iv, 3 h, read-out: DE50): 11.2 mg/kg
ED50 ([1]; po): 11.2 mg/kg
antagonist action against convulsions due to bicuculline on increase of the bicuculline doses ([1]; increased bicuculline doses): may be overcome by an increase of the bicuculline doses
competition with bicuculline ([1]; mouse, in vivo): competes with bicuculline
DL50/DE50 (therapeutical index) ([1]; mouse): 172
bicuculline (score: sum of animals protected by dosages of 10 and 100 mgr/kg) [1]: 7
DL50 (mice): 1925 mg/kg
effect on the activity of GAD [3]: particularly remarkable
activity against convulsions induced by strychnine [4]: inactive
inhibition of convulsions due to leptazol [5]: only slightly inhibits
effect on the effects of 1-trypthophan [6]: potentiates the effects of 1-trypthophan

COC(=O)CCCCCNCC(N)=O [Compound 8]
bicuculline (score: sum of animals protected by dosages of 10 and 100 mgr/kg) [1]: 1
LD50 (in vivo [2]; [11]): > 3000 mg/kg
effect on the activity of GAD [3]: particularly remarkable

CCCCCCCNCC(N)=O [Compound 9, 2-n-Heptylaminoacetamide]
bicuculline (score: sum of animals protected by dosages of 10 and 100 mgr/kg) [1]: 5
LD50 (in vivo [2]; [11]): 1420 mg/kg
protection against mortality caused by KCN (mortality caused by KCN): protect mice against mortality caused by KCN

CCCCCCCCCNCC(N)=O [Compound 11]
bicuculline (score: sum of animals protected by dosages of 10 and 100 mgr/kg) [1]: 2
LD50 (in vivo [2]; [11]): 1950 mg/kg
inhibition of platelet agglutination (platelet agglutination): active

CCCCCCNCC(N)=O [Compound 12, 2-n-hexylaminoacetamide]
bicuculline (score: sum of animals protected by dosages of 10 and 100 mgr/kg) [1]: 5
DL50 (mice): 2800 mg/kg

CCCCCCCCCCNCC(N)=O [Compound 14, 2-n-decylaminoacetamide]
bicuculline (score: sum of animals protected by dosages of 10 and 100 mgr/kg) [1]: 6
LD50 (in vivo [2]; [11]): 2600 mg/kg
inhibition of platelet agglutination (platelet agglutination): active

CCCCCCCC(C)NCC(N)=O (stereo not drawn) [Compound 18]
bicuculline (score: sum of animals protected by dosages of 10 and 100 mgr/kg) [1]: 2
LD50 (in vivo [2]; [11]): > 1000 mg/kg
inhibition of platelet agglutination (platelet agglutination): active

CCCCCNCC(N)=O [Compound 20]
bicuculline (score: sum of animals protected by dosages of 10 and 100 mgr/kg) [1]: 1
DL50 (mice): > 1000 mg/kg

COC(=O)CCCCCCCNC(C(N)=O)C(N)=O [Compound 23, Methyl 8-(dicarboxamidomethyl)aminooctanoate]
bicuculline (score: sum of animals protected by dosages of 10 and 100 mgr/kg) [1]: 7
DL50 (mice): > 1000 mg/kg

CCCCCCN(CC(N)=O)C(=O)c1ccccc1 [Compound 25]
bicuculline (score: sum of animals protected by dosages of 10 and 100 mgr/kg) [1]: 5
LD50 (in vivo [2]; [11]): 3660 mg/kg

CCCCCNCC(N)=O [Compound 26]
bicuculline (score: sum of animals protected by dosages of 10 and 100 mgr/kg) [1]: 3
DL50 (mice): 1950 mg/kg

CCCCCCNCC(N)=O [Compound 27]
bicuculline (score: sum of animals protected by dosages of 10 and 100 mgr/kg) [1]: 4
DL50 (mice): 860 mg/kg

CCCCCCN(CC)CC(N)=O [Compound 28]
bicuculline (score: sum of animals protected by dosages of 10 and 100 mgr/kg) [1]: 5
LD50 (in vivo [2]; [11]): 435 mg/kg

CCCCCCN(C)CC(N)=O [Compound 30, 2-(N-n-hexyl-N-methylamino)acetamide]
bicuculline (score: sum of animals protected by dosages of 10 and 100 mgr/kg) [1]: 4
LD50 (in vivo [2]; [11]): 570 mg/kg

CCCCCCNCC(N)=O [Compound 31]
bicuculline (score: sum of animals protected by dosages of 10 and 100 mgr/kg) [1]: 6
DL50 (mice): 1650 mg/kg

CCCCCNCC(N)=O.Cl [Compound 33, 2-n-pentylaminoacetamide hydrochloride]
ED50 ([1]; iv): 2.19 mg/kg
ED50 ([1]; iv, 3 h, read-out: DE50): 5.74 mg/kg
ED50 ([1]; po): 5.74 mg/kg
absorption from the intestinal tractus ([1]; mouse, in vivo): excellent absorption from the intestinal tractus
DL50/DE50 (therapeutical index) ([1]; mouse): 390
bicuculline (score: sum of animals protected by dosages of 10 and 100 mgr/kg) [1]: 6
LD50 (in vivo [2]; [11]): 2880 mg/kg
LD50 (in vivo [2]; mouse, in vivo, po, mouse; Table III; read-out: DL50 (the source's name)): 2240 mg/kg
effect on the activity of GAD [3]: particularly remarkable
effect on the convulsions due to picrotoxine [7]: no effect
potentiation of the GAD activity (GAD): 26%
effect on GABA-T (GABA-T): without modifying
increase of GABA rate of the black substance [8]: 38%
accumulation of lactate in the brain [9]: prevents accumulation of lactate in the brain

CCCCCNCC(N)=O [Compound 34]
bicuculline (score: sum of animals protected by dosages of 10 and 100 mgr/kg) [1]: 5
DL50 (mice): > 3000 mg/kg

CCCCCNCC(N)=O [Compound 35]
bicuculline (score: sum of animals protected by dosages of 10 and 100 mgr/kg) [1]: 3
DL50 (mice): > 3000 mg/kg

CCC1(c2ccccc2)C(=O)NC(=O)NC1=O [Na Phenobarbital, reference compound]
selectivity ratio (in vivo [10]): 88
ED50 ([1]; iv, 3 h, read-out: DE50): 2.11 mg/kg
LD50 (in vivo [2]; [12]): 185 mg/kg

CCCC(CCC)C(=O)O [Na Valproate, reference compound]
selectivity ratio (in vivo [10]): 14
ED50 ([1]; iv, 3 h, read-out: DE50): 89.1 mg/kg
LD50 (in vivo [2]; [12]): 1250 mg/kg
activity against convulsions induced by strychnine [4]: inactive
